From ChEMBL document CHEMBL5523759, “Discovery of Novel HDAC3 Inhibitors with PD-L1 Downregulating/Degrading and Antitumor Immune Effects” (J Med Chem, 2024)
Calls of active or inactive are those of the source. The calls are words filed in the database; no cut-off is given here.

What was measured:
[1] = target: T1, Histone deacetylase 3 (Mus musculus) (UniProt O88895); test: Inhibition of HDAC3 in mouse B16-F10 cells assessed as upregulation of acetylated H3 level at 1 to 2 uM measured for 24 hrs by Western blot analysis; format: cell-based; conditions: dose 1-2 µM
T1 sequence (whole entry): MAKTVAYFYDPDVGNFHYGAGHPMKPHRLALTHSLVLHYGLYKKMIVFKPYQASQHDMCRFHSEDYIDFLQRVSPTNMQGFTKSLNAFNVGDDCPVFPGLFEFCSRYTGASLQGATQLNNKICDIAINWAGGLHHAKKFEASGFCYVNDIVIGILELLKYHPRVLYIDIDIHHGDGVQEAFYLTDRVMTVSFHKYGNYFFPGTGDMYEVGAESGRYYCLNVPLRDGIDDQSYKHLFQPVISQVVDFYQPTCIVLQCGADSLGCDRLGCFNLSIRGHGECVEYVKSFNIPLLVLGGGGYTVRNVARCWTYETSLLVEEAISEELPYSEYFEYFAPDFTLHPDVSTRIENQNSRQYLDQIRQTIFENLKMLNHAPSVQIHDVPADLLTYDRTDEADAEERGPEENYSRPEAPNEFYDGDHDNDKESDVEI

[2] = target: Programmed cell death 1 ligand 1 (Mus musculus) (UniProt Q9EP73); test: Induction of PD-L1 degradation in mouse B16-F10 cells assessed as upregulation of CTSB level at 1 to 4 uM measured for 4 hrs by Western blot analysis; format: cell-based; conditions: dose 1-4 µM
[3] = target: Programmed cell death 1 ligand 1 (Mus musculus) (UniProt Q9EP73); test: Induction of PD-L1 degradation in mouse B16-F10 cells assessed as upregulation of CTSB level at 1 to 4 uM measured for 4 hrs in presence of CA-074 by Western blot analysis; format: cell-based; conditions: dose 1-4 µM
[4] = AUC (0 to t) in Sprague-Dawley rat at 2 mg/kg, iv measured up to 12 hrs by LC-MS/MS analysis; format: ADME, organism-based; conditions: in vivo
[5] = AUC (0 to t) in Sprague-Dawley rat at 20 mg/kg, po measured up to 12 hrs by LC-MS/MS analysis; format: ADME, organism-based; conditions: in vivo
[6] = AUC (0 to infinity) in Sprague-Dawley rat at 2 mg/kg, iv measured up to 12 hrs by LC-MS/MS analysis; format: ADME, organism-based; conditions: in vivo
[7] = AUC (0 to infinity) in Sprague-Dawley rat at 20 mg/kg, po measured up to 12 hrs by LC-MS/MS analysis; format: ADME, organism-based; conditions: in vivo
[8] = MRT (0 to t) in Sprague-Dawley rat at 2 mg/kg, iv measured up to 12 hrs by LC-MS/MS analysis; format: ADME, organism-based; conditions: in vivo
[9] = MRT (0 to infinity) in Sprague-Dawley rat at 2 mg/kg, iv measured up to 12 hrs by LC-MS/MS analysis; format: ADME, organism-based; conditions: in vivo
[10] = MRT (0 to infinity) in Sprague-Dawley rat at 20 mg/kg, po measured up to 12 hrs by LC-MS/MS analysis; format: ADME, organism-based; conditions: in vivo
[11] = Half life in Sprague-Dawley rat at 20 mg/kg, po measured up to 12 hrs by LC-MS/MS analysis; format: ADME, organism-based; conditions: in vivo
[12] = Tmax in Sprague-Dawley rat at 2 mg/kg, iv measured up to 12 hrs by LC-MS/MS analysis; format: ADME, organism-based; conditions: in vivo
[13] = Clearance in Sprague-Dawley rat at 20 mg/kg, po measured up to 12 hrs by LC-MS/MS analysis; format: ADME, organism-based; conditions: in vivo
[14] = Apparent volume of distribution in Sprague-Dawley rat at 2 mg/kg, iv measured up to 12 hrs by LC-MS/MS analysis; format: ADME, organism-based; conditions: in vivo, read-out: Vz
[15] = Apparent volume of distribution in Sprague-Dawley rat at 20 mg/kg, po measured up to 12 hrs by LC-MS/MS analysis; format: ADME, organism-based; conditions: in vivo
[16] = Cmax in Sprague-Dawley rat at 2 mg/kg, iv measured up to 12 hrs by LC-MS/MS analysis; format: ADME, organism-based; conditions: in vivo
[17] = Cmax in Sprague-Dawley rat at 20 mg/kg, po measured up to 12 hrs by LC-MS/MS analysis; format: ADME, organism-based; conditions: in vivo
[18] = Metabolic stability in mouse liver microsome assessed as parent compound remaining measured immediately; format: ADME; conditions: liver microsomes, read-out: Stability
[19] = Metabolic stability in mouse liver microsome assessed as parent compound remaining measured at 15 mins; format: ADME; conditions: liver microsomes, read-out: Stability
[20] = Metabolic stability in mouse liver microsome assessed as parent compound remaining measured at 45 mins; format: ADME; conditions: liver microsomes, read-out: Stability
[21] = Metabolic stability in rat liver microsome assessed as parent compound remaining measured at 30 mins; format: ADME; conditions: liver microsomes, read-out: Stability
[22] = Metabolic stability in mouse liver microsome assessed as half life; format: ADME; conditions: liver microsomes
[23] = Metabolic stability in rat liver microsome assessed as intrinsic clearance; format: ADME; conditions: liver microsomes, read-out: CLH
[24] = Toxicity in C57BL/6 mouse implanted with mouse B16-F10 cells assessed as body weight loss at 25 mg/kg, po administered for 9 days; format: organism-based; conditions: in vivo, 216 h, time 9 day
[25] = Toxicity in C57BL/6 mouse implanted with mouse B16-F10 cells assessed as lung damage at 25 mg/kg, po administered for 9 days by H and E staining based analysis; format: organism-based; conditions: in vivo, 216 h, time 9 day
[26] = Toxicity in C57BL/6 mouse implanted with mouse B16-F10 cells assessed as kidney damage at 25 mg/kg, po administered for 9 days by H and E staining based analysis; format: organism-based; conditions: in vivo, 216 h, time 9 day
[27] = Acute toxicity in C57BL/6J mouse assessed as survival rate at 500 mg/kg, po administered for 14 days; format: organism-based; conditions: in vivo, time 14 day
[28] = Acute toxicity in po dosed C57BL/6J mouse assessed as lethal dose administered for 14 days; format: organism-based; conditions: in vivo, time 14 day
B16-F10 [29] = test: Antitumor activity against mouse B16-F10 cells implanted in C57BL/6 mouse model assessed as upregulation of Ac-H3 expression at 25 mg/kg, po administered for 9 days by Western blot analysis; format: functional, organism-based; conditions: time 9.0 day
B16-F10 [30] = test: Antitumor activity against mouse B16-F10 cells implanted in C57BL/6 mouse model assessed as increase in Ac-H3 expression in tumor at 25 mg/kg, po administered for 9 days by Western blot analysis; format: functional, organism-based; conditions: time 9.0 day
B16-F10 [31] = test: Antitumor activity against mouse B16-F10 cells implanted in C57BL/6 mouse model assessed as […] in Ac-H3 expression in tumor at 25 mg/kg, po administered for 9 days by immunofluorescence analysis; format: functional, organism-based; conditions: time 9.0 day
B16-F10 [32] = test: Antitumor immunity against mouse B16-F10 cells implanted in C57BL/6 mouse model assessed as increase in CD3+ CD4+ T cells at 25 mg/kg, po administered for 9 days (reference value: 1.50%); format: functional; conditions: time 9 day
Histone deacetylase 3 = Histone deacetylase 3 (Homo sapiens, UniProt O15379); test: Inhibition of human recombinant HDAC3 using Ac-Leu-Gly-Lys (Ac)-AMC as substrate preincubated with compound for 10 mins followed by substrate addition and measured after 45 mins by TECAN microtiter plate reader analysis
Chain of Histone deacetylase 3 (O15379 whole entry): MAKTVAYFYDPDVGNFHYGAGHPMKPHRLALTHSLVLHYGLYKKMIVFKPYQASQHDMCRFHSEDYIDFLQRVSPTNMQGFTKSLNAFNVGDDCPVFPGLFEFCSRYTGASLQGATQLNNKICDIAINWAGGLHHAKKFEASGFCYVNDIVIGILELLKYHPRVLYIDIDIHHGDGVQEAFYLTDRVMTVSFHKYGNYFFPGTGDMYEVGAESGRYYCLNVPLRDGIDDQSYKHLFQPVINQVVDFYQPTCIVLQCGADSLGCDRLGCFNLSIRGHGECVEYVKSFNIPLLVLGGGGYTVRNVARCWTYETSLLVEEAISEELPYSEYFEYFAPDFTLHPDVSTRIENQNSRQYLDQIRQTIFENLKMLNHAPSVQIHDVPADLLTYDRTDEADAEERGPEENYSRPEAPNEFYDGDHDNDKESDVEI

Chain of Programmed cell death 1 ligand 1 (Mus musculus) (Q9EP73 whole entry): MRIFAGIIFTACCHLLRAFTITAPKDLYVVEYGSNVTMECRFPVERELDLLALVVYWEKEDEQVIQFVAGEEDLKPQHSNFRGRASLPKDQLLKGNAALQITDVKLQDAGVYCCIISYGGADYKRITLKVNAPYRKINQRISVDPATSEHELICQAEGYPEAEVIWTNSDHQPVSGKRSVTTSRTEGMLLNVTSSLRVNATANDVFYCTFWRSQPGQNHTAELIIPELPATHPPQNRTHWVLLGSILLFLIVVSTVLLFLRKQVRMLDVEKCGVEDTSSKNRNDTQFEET

**Q.** For `CCCNNC(=O)c1ccc(CNC(=O)c2ncc(CNc3ccccc3)s2)cc1`, which inhibition [1] is on record?
**A.** Its inhibition is “Active”.

**Q.** And the Activity [2]?
**A.** Its Activity is “Active”.

**Q.** And the Activity [3]?
**A.** Its Activity is “Active”.

**Q.** What about the AUC(0-t) at 12 h [4] of the same molecule?
**A.** The AUC(0-t) at 12 h was 522 ng·h/mL.

**Q.** What about the AUC(0-t) at 12 h [5] of the same molecule?
**A.** The AUC(0-t) at 12 h was 2740 ng·h/mL.

**Q.** And the AUC(0-inf) [6]?
**A.** The AUC(0-inf) was 529 ng·h/mL.

**Q.** And the AUC(0-inf) [7]?
**A.** The AUC(0-inf) was 3030 ng·h/mL.

**Q.** And the MRT last at 12 h [8]?
**A.** The MRT last at 12 h was 31.2 min.

**Q.** What about the MRT inf [9] of the same molecule?
**A.** Its MRT inf is 33 min.

**Q.** What about the MRT inf [10] of the same molecule?
**A.** The MRT inf was 269 min.

**Q.** What about the half-life [11] of the same molecule?
**A.** The half-life was 216 min.

**Q.** And the Tmax [12]?
**A.** The Tmax was 8.4 min.

**Q.** And the CL/F [13]?
**A.** Its CL/F is 121 mL/min/kg.

**Q.** And the Vd [14]?
**A.** The Vd was 2.21 L/kg.

**Q.** And the Vz [15]?
**A.** The Vz was 34.45 L/kg.

**Q.** What about the Cmax [16] of the same molecule?
**A.** Its Cmax is 725 ng/mL.

**Q.** And the Cmax [17]?
**A.** Its Cmax is 1040 ng/mL.

**Q.** What about the remaining at 0 min [18] of the same molecule?
**A.** Its remaining at 0 min is 100%.

**Q.** And the remaining at 0.25 h [19]?
**A.** The remaining at 0.25 h was 31.6%.

**Q.** And the remaining at 0.75 h [20]?
**A.** Its remaining at 0.75 h is 4.03%.

**Q.** What about the remaining at 0.5 h [21] of the same molecule?
**A.** Its remaining at 0.5 h is 38.5%.

**Q.** What about the half-life [22] of the same molecule?
**A.** The half-life was 9.69 min.

**Q.** What about the CLint scaled [23] of the same molecule?
**A.** Its CLint scaled is 107 mL/min/kg.

**Q.** What about the Activity [24] of the same molecule?
**A.** The Activity was “Non-Toxic”.

**Q.** What about the Activity [25] of the same molecule?
**A.** The Activity was “Non-Toxic”.

**Q.** What about the Activity [26] of the same molecule?
**A.** The Activity was “Non-Toxic”.

**Q.** And the survival at 336 h [27]?
**A.** Its survival at 336 h is 100%.

**Q.** What about the LD50 at 336 h [28] of the same molecule?
**A.** The LD50 at 336 h was greater than 1000 mg/kg.

**Q.** And the Activity (B16-F10 [29])?
**A.** The Activity was “Active”.

**Q.** And the Activity (B16-F10 [30])?
**A.** The Activity was “Active”.

**Q.** And the Activity (B16-F10 [31])?
**A.** Its Activity is “Active”.

**Q.** What about the Activity (B16-F10 [32]) of the same molecule?
**A.** The Activity was 4.16%.

**Q.** Which IC50 (Histone deacetylase 3) does the source give for `Nc1ccccc1NC(=O)c1ccc(-c2ncc(CNc3ccccc3)s2)cc1` here?
**A.** Its IC50 is 66 nM.
